In patent US6150361A, “Triazineone compounds for treating diseases due to sarcosystis, neospora and toxoplasma” (Bayer Corporation, priority 1998, dated 2000):
“And” between values parts separate entries of the source, which are not always exact repeats. Equal values may be shown once.

Columns and labels:
[1] = system: Sarcocystis neurona; assay: Microtiter Monolayer Disruption Assay (MMDA), Sarcocystis neurona; type: cell-based, Sarcocystis neurona strain SN3; details: BT cells
Experimental: (§1) In order to determine the scope of protection provided by Ponazuril, in vitro testing was conducted. The following strains of parasites were evaluated for their sensitivity to this compound: Strain SN3 of Sarcocystis neurona; strain SF1 of Sarcocystis falcatula; strain RH of Toxoplasma gondii; and the NC-1 strain of Neospora caninum. […]
(§2) Bovine turbinate (BT) cells were used for all in vitro studies. Cells were grown to confluency in 25 cm^2 flasks in RMPI 1640 media supplemented with 10% v/v fetal bovine serum (FBS), 100 Units penicillin (G/mL), […] streptomycin/mL and 5×10^-2 mM 2-mercpatoethanol. After cell confluence was obtained, cells were maintained in the same media with reduced FBS (2% v/v). Cell cultures were incubated at 37 C. in a humidified atmosphere containing 5% carbon dioxide and 95% air.
(§3) For growth of parasites, BT cell monolayers were infected with parasites and examined with an inverted microscope for the development of lesions (cytopathic effect, "CPE") or the presence of many extracellular merozoites. Once lesions were observed, or many extracellular parasites were present, the monolayer was scraped with the tip of a 5 mL pipette and 1 to 3 drops of the merozoite-containing fluid was transferred to two flasks of fresh BT cells. Merozoites of S. neurona and S. falcatula were passaged in this manner every 5 to 10 days while the tachyzoites of T. gondii and N. caninum were passaged every 3 to 4 days.
(§4) The assay used to determine the effectiveness of Ponazuril was the Microtiter Monolayer Disruption Assay (MMDA). This assay was used to determine if the parasites or compound were toxic for BT cells. Flat bottomed 96-well microtiter plates were inoculated with BT cells and the resulting monolayers were used to determine the effects of Toltrazuril and Ponazuril on merozoite production as measured by CPE (plaque formation). Monolayers were inoculated with parasites (S. neurona or S. falcatula at a count of 50,000/well, T. gondii at a level of 10,000/well, and N. caninum at 20,000/well. All wells were inoculated with the test compound 2 hours after infection. Untreated and […] monolayer wells served as parasite controls and uninfected agent treated BT cells served as toxicity controls. Each treatment was examined in replicates of 6. Each well was visually monitored daily and the assay was stopped when 90-100% of the untreated merozoite infected cells had lysed (90-100% CPE). All wells of the plates were rinsed in Phosphate Buffered Saline (PBS) and fixed in 100% methanol for 5 minutes after which they were stained in crystal violet solution. […]

[2] = system: Bovine turbinate (BT) cells; type: cell-based; details: uninfected BT cells
Experimental: as §2
(§5) The assay used to determine the effectiveness of Ponazuril was the Microtiter Monolayer Disruption Assay (MMDA). This assay was used to determine if the parasites or compound were toxic for BT cells. Flat bottomed 96-well microtiter plates were inoculated with BT cells and the resulting monolayers were used to determine the effects of Toltrazuril and Ponazuril on merozoite production as measured by CPE (plaque formation). […]

[3] = system: Toxoplasma gondii; assay: Microtiter Monolayer Disruption Assay (MMDA), Toxoplasma gondii; type: cell-based, Toxoplasma gondii strain RH; details: BT cells
Experimental: as §1, §2, §3, §5

[4] = system: Sarcocystis falcatula; assay: Microtiter Monolayer Disruption Assay (MMDA), Sarcocystis falcatula; type: cell-based, Sarcocystis falcatula strain SF1; details: BT cells
Experimental: In order to determine the scope of protection provided by Ponazuril, in vitro testing was conducted. The following strains of parasites were evaluated for their sensitivity to this compound: Strain SN3 of Sarcocystis neurona; strain SF1 of Sarcocystis falcatula; strain RH of Toxoplasma gondii; and the NC-1 strain of Neospora caninum. Ponazuril was tested at 2 concentrations (1 μg/mL and 10 μg/mL).
as §2, §3, §4

[5] = system: EPM-Infected Horses; assay: Treatment of naturally occurring clinical EPM in horses with Ponazuril paste (clinical score); type: in vivo
Experimental: The compound was formulated into a paste using Ponazuril as a 15% active ingredient (a.i.) as described in EXAMPLE 1. It was administered to horses already diagnosed with EPM once a day for 28 days at a dose rate between 2.5 mg/Kg and 10 mg/Kg.
Naturally occurring clinical cases of EPM were well characterized by signalment and laboratory diagnosis. The diagnosis used for incorporation of EPM-positive horses into this trial was as follows: Confirmed asymmetrical neurological deficit as determined by a standardized neurological examination, to include radiography, indicative of EPM; Positive Western Blot for Sarcocystis neurona IgG; Red Blood Cell count below 500 cells/mL; CSF indices--Total Protein<90, IgG index>0.3. AQ quotient<2.2.
Additional requirements were that the horses were not suffering from diseases other than EPM. Therefore, they had to meet the following criteria: Negative CSF (<1:4) for EHV-1; Normal serum values for Vitamin E (.2.0 μg/mL); Lack of seizure disorders; Lack of behavior disorders.
Diagnosed horses were randomly assigned to groups. Group 1 horses received the paste formulation daily at a dose rate of 5 mg/Kg whereas Group 2 horses received the paste formulation daily at a dose rate of 10 mg/Kg. The treatment dose was based on body weight. The horses were evaluated for a period of 90 days (approximately 60 days after discontinuation of treatment) in order to determine that treatment was indeed effective. The response to treatment was scored using the following system:
1) 0=complete success-clinically normal with a negative CSF; 2) 1=Deficit just detected at a normal gait; 3) 2=Deficit easily detected and exaggerated by backing, turning, swaying, jaw loin pressure and neck extension; 4) 3=Deficit very prominent on walking, Facial turning, loin pressure or neck extension; 5) 4=Stumbling, tripping and falling down spontaneously; 6) 5=Recumbent, unable to rise. An improvement of one (1) unit in the score was considered a significant improvement.

[6] = 0.1 μg/mL, read-out: Percent Inhibition of Cell Destruction, 0.1 μg/mL
[7] = 1 μg/mL, read-out: Percent Inhibition of Cell Destruction, 1 μg/mL
[8] = 5.0 μg/mL, read-out: Percent Inhibition of Cell Destruction, 5.0 μg/mL
[9] = 10 μg/mL, read-out: Percent Inhibition of Cell Destruction, 10 μg/mL
[10] = individual horse, 5 mg/Kg paste daily for 28 days, score 0=complete success to 5=recumbent, listed as Toltrazuril Sulfone
[11] = individual horse, 10 mg/Kg paste daily for 28 days, score 0=complete success to 5=recumbent, listed as Toltrazuril Sulfone
[12] = sum of scores of group, 5 mg/Kg daily for 28 days
[13] = sum of scores of group, 10 mg/Kg daily for 28 days

## Cc1cc(-n2c(=O)[nH]c(=O)n(C)c2=O)ccc1Oc1ccc(S(=O)(=O)C(F)(F)F)cc1 [Ponazuril]
[1]; [6]
  inhibition at 0.1 µg/mL: 0%
[1]; [7]
  inhibition at 1 µg/mL: 40%
[1]; [8]
  inhibition at 5 µg/mL: 90%
[1]; [9]
  inhibition at 10 µg/mL: 100%
[2]
  toxicity to the BT cells: not toxic
[3]; 0.001 μg/mL, read-out: Percent Inhibition of Cell Destruction, 0.001 μg/mL
  inhibition at 0.001 µg/mL: 11%
[3]; [6]
  inhibition at 0.1 µg/mL: 100%
[3]; 1.0 μg/mL, read-out: Percent Inhibition of Cell Destruction, 1.0 μg/mL
  inhibition at 1 µg/mL: 100%
[4]; [6]
  inhibition at 0.1 µg/mL: 61%
[4]; [7]
  inhibition at 1 µg/mL: 100%
[4]; [8]
  inhibition at 5 µg/mL: 100%
[4]; [9]
  inhibition at 10 µg/mL: 100%
[5]; 5 mg/Kg versus 10 mg/Kg
  improvement in total scores, Group 1 versus Group 2: approximately equivalent
[5]; 10 mg/Kg, treated for 28 days, improvement of 1 unit significant
  horses showing a significant improvement in clinical score by day 90: 100%
[5]; either 5 mg/Kg or 10 mg/Kg
  effectiveness for the active treatment of EPM in horses: effective
[5]; [10]
  clinical score, Day 28, 5 mg/Kg Dose: 1 and 2 and 0 and 3
  clinical score, Day 90, 5 mg/Kg Dose: 2 and 1 and 0 and 3
[5]; [11]
  clinical score, Day 28, 10 mg/Kg Dose: 2 and 1 and 0
  clinical score, Day 90, 10 mg/Kg Dose: 1 and 0
[5]; individual horse, before treatment, 5 mg/Kg paste daily for 28 days, score 0=complete success to 5=recumbent, listed as Toltrazuril Sulfone
  clinical score, Day 0, 5 mg/Kg Dose: 2 and 3
[5]; individual horse, before treatment, 10 mg/Kg paste daily for 28 days, score 0=complete success to 5=recumbent, listed as Toltrazuril Sulfone
  clinical score, Day 0, 10 mg/Kg Dose: 4 and 3 and 2
[5]; [12]
  TOTAL clinical score, Day 28, 5 mg/Kg Dose: 13
  TOTAL clinical score, Day 90, 5 mg/Kg Dose: 6
[5]; [13]
  TOTAL clinical score, Day 28, 10 mg/Kg Dose: 15
  TOTAL clinical score, Day 90, 10 mg/Kg Dose: 4
[5]; sum of scores of group, before treatment, 5 mg/Kg
  TOTAL clinical score, Day 0, 5 mg/Kg Dose: 17
[5]; sum of scores of group, before treatment, 10 mg/Kg
  TOTAL clinical score, Day 0, 10 mg/Kg Dose: 19
